Data from ChEMBL document CHEMBL1146257, “2,6-Quinolinyl derivatives as potent VLA-4 antagonists” (Bioorg Med Chem Lett, 2007).
≈ marks a conversion by molar mass, not a printed value.

Key:
[1] = Inhibition of human recombinant VACM1 binding to VAL4 expressed in U937 cells by adhesion test; assay type: cell-based; conditions: u-937
[2] = Inhibition of fibronectin binding to VAL4 expressed in Jurkat cells by adhesion test; assay type: cell-based, Homo sapiens
[3] = Inhibition of T cell activation assessed as CD3-VACM interaction; assay type: functional, cell-based, Homo sapiens
[4] = Oral bioavailability in mouse; assay type: ADME, organism-based; conditions: in vivo
[5] = Oral bioavailability in rat; assay type: ADME, organism-based; conditions: in vivo
[6] = Oral bioavailability in dog; assay type: ADME, organism-based, Canis lupus familiaris; conditions: in vivo
[7] = Oral bioavailability in monkey; assay type: ADME, organism-based, Macaca mulatta; conditions: rhesus monkey, in vivo
[8] = Solubility at pH 7.4; assay type: physicochemical; conditions: buffer
[9] = Distribution coefficient, log D of the compound; assay type: physicochemical; conditions: octanol/water
[10] = molecular target: Integrin alpha-4/beta-1 (VLA-4) (Homo sapiens); assay: Inhibition of VCAM binding to integrin alpha4beta1 by human whole blood assay
U-937 = assay: Inhibition of human recombinant VACM1 binding to VAL4 expressed in U937 cells at 1 uM by adhesion test; assay type: cell-based

| IC50 [1] | SMILES | also measured |
| --- | --- | --- |
| 0.748 µM | O=C(NC(Cc1ccc2nc(-c3ccc(Cl)cc3Cl)ccc2c1)C(=O)O)c1c(Cl)cccc1Cl (stereo not drawn) |  |
| 0.092 µM | O=C(NC(Cc1ccc2nc(-c3ccccc3C(F)(F)F)ccc2c1)C(=O)O)c1c(Cl)cccc1Cl (stereo not drawn) |  |
| 0.02 µM | O=C(NC(Cc1ccc2nc(-c3c(F)cccc3Cl)ccc2c1)C(=O)O)c1c(Cl)cccc1Cl (stereo not drawn) |  |
| 0.0039 µM | O=C(N[C@@H](Cc1ccc2nc(-c3c(Cl)cccc3Cl)ccc2c1)C(=O)O)c1c(Cl)cccc1Cl | IC50 [2]: 0.0016 µM; IC50 [3]: 0.043 µM; bioavailability [4]: 35%; bioavailability [5]: 41%; bioavailability [6]: 59%; bioavailability [7]: 23%; solubility [8]: 1.5 µg/mL (≈ 2.81 µM); logD [9]: 1.47; IC50 [10]: 0.095 µM |
| 0.0372 µM | Cc1cccc(C)c1C(=O)NC(Cc1ccc2nc(-c3c(Cl)cccc3Cl)ccc2c1)C(=O)O (stereo not drawn) |  |
| 0.371 µM | O=C(NC(Cc1ccc2nc(-c3c(F)cccc3F)ccc2c1)C(=O)O)c1c(Cl)cccc1Cl (stereo not drawn) |  |
| 0.153 µM | O=C(NC(Cc1ccc2nc(-c3ccccc3Br)ccc2c1)C(=O)O)c1c(Cl)cccc1Cl (stereo not drawn) |  |
| 0.0078 µM | O=C(NC(Cc1ccc2nc(-c3c(Cl)cccc3Cl)ccc2c1)C(=O)O)c1c(Cl)cccc1Cl (stereo not drawn) |  |
| 5.64 µM | O=C(NC(Cc1ccc2nc(-c3c(Cl)cccc3Cl)ccc2c1)C(=O)O)c1ccccc1 (stereo not drawn) |  |
| 0.435 µM | O=C(NC(Cc1ccc2nc(-c3c(Cl)cccc3Cl)ccc2c1)C(=O)O)c1c(F)cccc1F (stereo not drawn) |  |
| 0.0537 µM | COc1cccc(OC)c1C(=O)NC(Cc1ccc2nc(-c3c(Cl)cccc3Cl)ccc2c1)C(=O)O (stereo not drawn) |  |
| 0.102 µM | Cc1cccc(C)c1-c1ccc2cc(CC(NC(=O)c3c(Cl)cccc3Cl)C(=O)O)ccc2n1 (stereo not drawn) |  |
| 0.0066 µM | O=C(O)C(Cc1ccc2nc(-c3c(Cl)cccc3Cl)ccc2c1)NC(=O)C1(c2ccc(Cl)cc2)CCCC1 (stereo not drawn) |  |
| 0.0153 µM | O=C(O)C(Cc1ccc2nc(-c3c(Cl)cccc3Cl)ccc2c1)NC(=O)[C@@H]1CCC(=O)N1Cc1ccccc1 (stereo partly drawn) |  |
| 0.208 µM | O=C(NC(Cc1ccc2nc(-c3cc(C(F)(F)F)ccc3Cl)ccc2c1)C(=O)O)c1c(Cl)cccc1Cl (stereo not drawn) |  |
| 0.0079 µM | Cc1cc(Cl)c(C(=O)NC(Cc2ccc3nc(-c4c(Cl)cccc4Cl)ccc3c2)C(=O)O)c(Cl)n1 (stereo not drawn) |  |
|  | CS(=O)(=O)c1ccc(-c2ccc3cc(CC(NC(=O)c4c(Cl)cccc4Cl)C(=O)O)ccc3n2)cc1 (stereo not drawn) | inhibition (U-937): 82% |
| 0.381 µM | O=C(NC(Cc1ccc2nc(-c3ccncc3)ccc2c1)C(=O)O)c1c(Cl)cccc1Cl (stereo not drawn) |  |
| 0.0035 µM | CS(=O)(=O)c1ccc(C(=O)NC(Cc2ccc3nc(-c4c(Cl)cccc4Cl)ccc3c2)C(=O)O)c(Cl)c1 (stereo not drawn) |  |
| 0.018 µM | COc1cccc(OC)c1-c1ccc(C[C@H](NC(=O)c2c(Cl)cccc2Cl)C(=O)O)cc1 | IC50 [3]: 0.099 µM |
| 0.0073 µM | COc1ccc2ccccc2c1-c1ccc2cc(CC(NC(=O)c3c(Cl)cccc3Cl)C(=O)O)ccc2n1 (stereo not drawn) |  |
|  | O=C(NC(Cc1ccc2nc(-c3nccs3)ccc2c1)C(=O)O)c1c(Cl)cccc1Cl (stereo not drawn) | inhibition (U-937): 38% |
|  | O=C(NC(Cc1ccc2nc(-c3ccccc3)ccc2c1)C(=O)O)c1c(Cl)cccc1Cl (stereo not drawn) | inhibition (U-937): 24% |
| 0.0065 µM | O=C(NC(Cc1ccc2nc(-c3c(Cl)cccc3[N+](=O)[O-])ccc2c1)C(=O)O)c1c(Cl)cccc1Cl (stereo not drawn) |  |
| > 3.2 µM | O=C(N[C@H](Cc1ccc2nc(-c3c(Cl)cccc3Cl)ccc2c1)C(=O)O)c1c(Cl)cccc1Cl |  |
| 0.02 µM | COc1cccc(OC)c1-c1ccc2cc(CC(NC(=O)c3c(Cl)cccc3Cl)C(=O)O)ccc2n1 (stereo not drawn) |  |
| 0.0039 µM | Cc1cccc(Cl)c1C(=O)NC(Cc1ccc2nc(-c3c(Cl)cccc3Cl)ccc2c1)C(=O)O (stereo not drawn) |  |
| 0.0086 µM | O=C(NC(Cc1ccc2nc(-c3cc(Cl)nc(Cl)c3)ccc2c1)C(=O)O)c1c(Cl)cccc1Cl (stereo not drawn) |  |
